Assays:
[1] = Single-dose two-way crossover study of phenytoin pharmacokinetics, alone or co-administered with carisoprodol; conditions: human, in vivo; for half-life / Tmax: least sq. mean
Protocol: The study was designed as a randomized, single-dose two-way crossover to compare the pharmacokinetic parameters of carisoprodol (350 mg SOMA® (carisoprodol) Tablets by MedPointe Pharmaceuticals, MedPointe Healthcare Inc.) and phenyloin (PROMPT® Phenyloin Sodium 100 mg Capsules by IVAX Pharmaceuticals, Inc.). Twelve healthy adults participated in this comparison study and all of the subjects completed the study.
Subjects received two separate drug administration treatments in assigned periods, one treatment per period, according to the randomization schedule. Treatment (A) was 3 PROMPT® Phenyloin Sodium 100 mg capsules with 240 mL of room temperature water after an overnight fast. Treatment (B) was 3 PROMPT® Phenyloin Sodium 100 mg capsules and 2 tablets of SOMA® (carisoprodol 350 mg tablets) after an overnight fast.
Dosing days were separated by a washout period of at least fourteen days. Blood samples were drawn prior to dosing (pre-dose) and at 0.5, 1, 1.5, 2, 2.5, 3, 3.5, 4, 4.5, 5, 6, 7, 8, 10, 12, 18, 24, and 48 hours post-dose. The samples were then analyzed for total phenyloin. At study hours 2, 4, 6, 12 and 24 an additional blood sample was collected for the determination of “free” phenyloin.
The area under the plasma concentration versus time curve [AUCt] may be calculated using the linear trapezoidal rule from the zero time point to the last measured concentration.
The area under the plasma concentration versus time curve from zero to infinity [AUC0-INF] may be calculated by adding Ct/Kelm to AUC where Ct is the last measured concentration and Kelm is the elimination rate constant.
The maximum observed plasma concentration [Cmax] may be obtained by inspection.
The time to maximum plasma concentration [Tmax] may be obtained by inspection. If the same maximum plasma concentration occurs at more than one time point, the first may be chosen as Tmax.
The terminal elimination rate constant [Kelm] may be obtained from the slope of the line, fitted by linear least squares regression, through the terminal points of the ln(base e) of the concentration versus time plot for these points.
The half-life [T1/2] may be calculated by the equation T1/2=0.693/Kelm.

[2] = test system: plasma proteins in the bloodstream such as albumin; conditions: cited from earlier work
[3] = Drug interaction study: carisoprodol added to a steady-state regimen of phenytoin; conditions: human, in vivo; for half-life / Tmax: least sq. mean
Protocol: A single-arm, two-way drug interaction study was conducted in which carisoprodol (350 mg SOMA®) was added to a steady state regimen of phenyloin (PROMPT® Phenyloin Sodium 100 mg Capsules). The effects of coadministration of carisoprodol at steady state conditions on the Cmax and AUC of phenyloin are summarized in Table 5. Twenty-four healthy adults participated in this comparison study and twenty-one of the subjects completed the study.
On study Days 1 through 14, a single 300 mg (1×300 mg capsule) dose of phenyloin sodium was administered to all study subjects following an overnight fast of at least 10 hours.
On study Days 15 through 28, a single 300 mg (1×300 mg capsule) dose of phenyloin sodium and a single 350 mg (1×350 mg tablet) dose of carisoprodol were co-administered to all study subjects following an overnight fast of at least 10 hours. A single dose of carisoprodol was re-administered to all study subjects 3 more times a day (every 6 hours) for Days 15 through 28.
Phenyloin: On study Days 14 and 28, 18 blood samples were collected (6 mL each) from each subject by direct venipuncture using pre-labeled Vacutainers® containing K2 EDTA as an anticoagulant. Blood samples were collected within one hour prior to dosing and after dose administration at study hours 0.5, 1, 1.5, 2, 2.5, 3, 3.5, 4, 4.5, 5, 6, 7, 8, 10, 12, 18, and 24.

[4] = cited from earlier work
[5] = cited from earlier work; remark: listed apart in the source

O=C1NC(=O)C(c2ccccc2)(c2ccccc2)N1 [Phenytoin, 5,5-diphenylhydantoin]
AUC0-INF, free phenytoin, geometric mean [1]: 12927.88 ng·h/mL
AUC0-t, free phenytoin, geometric mean [1]: 5150.25 ng·h/mL
AUC(0-inf) [1]: 134000 ng·h/mL
AUC(0-t) [1]: 97300 ng·h/mL
Cmax, total phenytoin, geometric mean [1]: 3222.2 ng/mL
Kelm, total phenytoin, least sq. mean [1]: 0.03395
kelm, free phenytoin, least sq. mean [1]: 0.0279
half-life ([1]; T1/2, free phenytoin): 35.8 h
half-life ([1]; T1/2, total phenytoin): 23.9 h
Tmax ([1]; free phenytoin): 9.17 h
Tmax ([1]; total phenytoin): 7.44 h
bound to plasma proteins [2]: about 90%
AUC0-INF, free steady-state phenytoin, geometric mean [3]: 32701.49 ng·h/mL
AUC0-t, free steady-state phenytoin, geometric mean [3]: 14733.48 ng·h/mL
Cmax, total steady-state phenytoin, geometric mean [3]: 13604.17 ng/mL
kelm, free steady-state phenytoin, least sq. mean [3]: 0.0312
kelm, total steady-state phenytoin, least sq. mean [3]: 0.0233
Cmax, free steady-state phenytoin, geometric mean ([3]; 350 mg): 929.76 ng/mL
half-life ([3]; T1/2, free steady-state phenytoin): 35.4 h
half-life ([3]; T1/2, total steady-state phenytoin): 39.4 h
Tmax ([3]; free steady-state phenytoin): 5.04 h
Tmax ([3]; total steady-state phenytoin): 3.55 h
typical clinically effective serum level of unbound or free phenytoin (therapeutic range) ([4]; free phenytoin): 1 to 2 µg/mL
typical clinically effective serum level of total phenytoin (therapeutic range) ([4]; total phenytoin): 10 to 20 µg/mL

CCCC(C)(COC(N)=O)COC(=O)NC(C)C (centres unmarked) [Carisoprodol, N-isopropyl-2-methyl-2-propyl-1,3-propanediol dicarbamate]
solubility in alcohol, chloroform, and acetone (descriptive) ([5]; alcohol, chloroform, acetone): freely soluble
solubility in water (descriptive) ([5]; water): very sparingly soluble

Source: patent US20080234341A1, “Carisoprodol and Phenytoin Methods” (MUTUAL PHARMACEUTICAL COMPANY, INC., priority 2006, published 2008)
